Article PMC6220849, “Mechanistic and structural studies of KDM‐catalysed demethylation of histone 1 isotype 4 at lysine 26” (Febs Letters, 2018)
Square brackets hold non-standard residues; d marks the D form. Ends that are not written are not given here. Me3 = N-epsilon-trimethyl on lysine; Lys(Me) = CNCCCC[C@H](N)C(=O)O

T1: KDM4A(1-359), catalytic domain of human histone lysine demethylase KDM4A (human, UniProt O75164 1-359)
T1 construct: KDM4A, human, catalytic domain, residues 1-359; In the crystal the active site holds Ni(II) (in place of Fe(II)) and N-oxalylglycine (NOG)
T1 sequence (looked up): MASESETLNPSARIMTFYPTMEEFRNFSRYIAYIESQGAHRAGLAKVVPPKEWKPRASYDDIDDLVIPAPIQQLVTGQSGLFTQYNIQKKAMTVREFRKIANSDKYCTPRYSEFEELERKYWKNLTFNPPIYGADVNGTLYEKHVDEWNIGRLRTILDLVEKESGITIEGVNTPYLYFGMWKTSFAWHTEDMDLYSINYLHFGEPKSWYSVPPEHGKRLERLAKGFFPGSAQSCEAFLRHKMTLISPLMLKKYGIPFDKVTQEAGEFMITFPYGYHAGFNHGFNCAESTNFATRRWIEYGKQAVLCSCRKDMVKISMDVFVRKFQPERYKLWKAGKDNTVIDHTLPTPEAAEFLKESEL

B1: H1.4(18–32)K26me3 peptide (histone 1 isotype 4, residues 18-32, N-epsilon-trimethyllysine at K26) (peptide)
peptide: TPVKKKARK(Me3)SAGAAK-NH2
notes: histone H1.4 (histone 1 isotype 4), residues 18-32; only residues 24-29 are seen in the crystal structure; also called H1.4K26me3; H1.4K26me3 peptide; source: synthetic peptide

Experiments:
[1] = test system: KDM5C (KDM5C1–765); assay: MALDI-TOF MS demethylation activity assay, KDM5C; type: biochemical, human; set-up: key: 🟢: Indicates that clear demethylation activity was observed; 🟡: Indicates that low level demethylation activity was observed (<10% conversion after 1 h); 🔴: Indicates no activity under the stated conditions (1 μM KDM, 10 μM peptide); 🟡*: *Indicates demethylation activity was only observed with 5 μM KDM; details: peptide as substrate, 1 μM KDM, 10 μM peptide, 50 mM HEPES pH 7.5, Fe(II) 10 μM, ascorbate 100 μM, 2OG 200 μM, 1 h at 37 °C
Experimental: (§1) Recombinant proteins (1 μM) were incubated with peptides (10 μM, sequences are given in Table S1) in 50 mM HEPES, pH 7.5 with addition of Fe(II) ammonium sulfate (10 μM), sodium ascorbate (100 μM) and 2‐oxoglutaric acid (200 μM). Reactions with KDM3A and KDM7A also contained 1 mM tris(2‐carboxyethyl)phosphine hydrochloride. No enzyme reactions were included as negative controls. Reactions were incubated for 1 h at 37 °C before being quenched with 1 : 1 (v/v) methanol. Analysis was carried out by MALDI‐TOF MS (Bruker, Billerica, MA, USA), with demethylation observed as mass shifts of 14 Da.
(§2) The propensity of human JmjC KDMs to catalyse demethylation at H1.4K26 was investigated using recombinant forms of the catalytic domains of representatives of each human JmjC KDM subfamily (KDM2‐7) and fragment peptides (Table S1) 37. Three peptides with identical sequences, corresponding to residues 18–32 of histone H1.4 (H2N‐[…]‐CONH2), but containing either a N ^ε‐tri‐, di‐ or monomethyllysine at K26 were synthesised (Fig. 1B and Table S1). Activity assays monitoring JmjC KDM‐catalysed demethylation of the peptides were then carried out; samples were prepared containing each peptide, 2‐oxoglutarate (2OG), ferrous iron, ascorbate and individual representatives from each JmjC KDM subfamily (KDM2A 38, KDM3A 21, KDM4E 22, KDM5C 39, 40, KDM6B 41, KDM7A 42).

[2] = test system: KDM7A (KDM7A38–480); assay: MALDI-TOF MS demethylation activity assay, KDM7A; type: biochemical, human; details: peptide as substrate; MALDI-TOF MS; 1 μM KDM, 10 μM peptide, 50 mM HEPES pH 7.5, Fe(II) 10 μM, ascorbate 100 μM, 2OG 200 μM, 1 mM TCEP, 1 h at 37 °C
Experimental: as §1, §2
(§3) N ^ε‐Trimethylated H3K4 binds to the plant homeobox domain of KDM7B, targeting the N ^ε‐dimethyllysine at H3K9 to the catalytic domain, and thus promoting demethylation 29, 44. To test whether similar targeting may occur with H1.4, promoting activity at H1.4K26, an H1.4 peptide was synthesised containing di‐N ^ε‐methyllysine at K26 and tri‐N ^ε‐methyllysine at K21 (i.e. at the equivalent position in the sequence to K4 in the H3 peptide, Fig. 1B, Table S1). Monomethylation at H1.4K21 has previously been observed by proteomic mass spectrometry 45. With the aim of enhancing activity, the enzyme concentration was increased from 1 μM to 5 μM, and time course analyses were conducted with both KDM7A and KDM7B, both with the new peptide (H1.4(18–32)K21me3K26me2) and the H1.4 peptides methylated only at K26 (Fig. 2B). […] Thus, it appears unlikely that N ^ε‐trimethylation at H1.4K21 promotes demethylation at H1.4K26 by KDM7B.

[3] = test system: KDM4C (KDM4C1–359); assay: MALDI-TOF MS demethylation activity assay, KDM4C; type: biochemical, human; set-up: key: 🟢: Indicates that clear demethylation activity was observed; 🟡: Indicates that low level demethylation activity was observed (<10% conversion after 1 h); 🔴: Indicates no activity under the stated conditions (1 μM KDM, 10 μM peptide); 🟡*: *Indicates demethylation activity was only observed with 5 μM KDM; details: peptide as substrate, 1 μM KDM, 10 μM peptide, 50 mM HEPES pH 7.5, Fe(II) 10 μM, ascorbate 100 μM, 2OG 200 μM, 1 h at 37 °C
Experimental: as §1
(§4) Given the activity observed with KDM4E and KDM7A, we decided to investigate the intra‐subfamily conservation of this demethylation activity. The demethylation activity of the other subfamily members (KDM4A‐D and KDM7B) was therefore screened. […] Note that as with H3K9, demethylation of the monomethylated H1.4K26 peptide was only observed with KDM4E, under the stated conditions 24.

[4] = test system: KDM4B (KDM4B1–359); assay: MALDI-TOF MS demethylation activity assay, KDM4B; type: biochemical, human; set-up: key: 🟢: Indicates that clear demethylation activity was observed; 🟡: Indicates that low level demethylation activity was observed (<10% conversion after 1 h); 🔴: Indicates no activity under the stated conditions (1 μM KDM, 10 μM peptide); 🟡*: *Indicates demethylation activity was only observed with 5 μM KDM; details: peptide as substrate, 1 μM KDM, 10 μM peptide, 50 mM HEPES pH 7.5, Fe(II) 10 μM, ascorbate 100 μM, 2OG 200 μM, 1 h at 37 °C
Experimental: as §1, §4

[5] = test system: KDM2A (KDM2A1–557); assay: MALDI-TOF MS demethylation activity assay, KDM2A; type: biochemical, human; set-up: key: 🟢: Indicates that clear demethylation activity was observed; 🟡: Indicates that low level demethylation activity was observed (<10% conversion after 1 h); 🔴: Indicates no activity under the stated conditions (1 μM KDM, 10 μM peptide); 🟡*: *Indicates demethylation activity was only observed with 5 μM KDM; details: peptide as substrate, 1 μM KDM, 10 μM peptide, 50 mM HEPES pH 7.5, Fe(II) 10 μM, ascorbate 100 μM, 2OG 200 μM, 1 h at 37 °C
Experimental: as §1, §2

[6] = test system: KDM6B (KDM6B1141–1590); assay: MALDI-TOF MS demethylation activity assay, KDM6B; type: biochemical, human; set-up: key: 🟢: Indicates that clear demethylation activity was observed; 🟡: Indicates that low level demethylation activity was observed (<10% conversion after 1 h); 🔴: Indicates no activity under the stated conditions (1 μM KDM, 10 μM peptide); 🟡*: *Indicates demethylation activity was only observed with 5 μM KDM; details: peptide as substrate, 1 μM KDM, 10 μM peptide, 50 mM HEPES pH 7.5, Fe(II) 10 μM, ascorbate 100 μM, 2OG 200 μM, 1 h at 37 °C
Experimental: as §1, §2

[7] = test system: KDM4D (KDM4D1–359); assay: MALDI-TOF MS demethylation activity assay, KDM4D; type: biochemical, human; set-up: key: 🟢: Indicates that clear demethylation activity was observed; 🟡: Indicates that low level demethylation activity was observed (<10% conversion after 1 h); 🔴: Indicates no activity under the stated conditions (1 μM KDM, 10 μM peptide); 🟡*: *Indicates demethylation activity was only observed with 5 μM KDM; details: peptide as substrate, 1 μM KDM, 10 μM peptide, 50 mM HEPES pH 7.5, Fe(II) 10 μM, ascorbate 100 μM, 2OG 200 μM, 1 h at 37 °C
Experimental: as §1, §4

[8] = test system: KDM7B (PHF8; KDM7B1–447); assay: MALDI-TOF MS demethylation activity assay, KDM7B (PHF8); type: biochemical, human; set-up: key to demethylation activity on methylated H1.4 peptide: 🟢: Indicates that clear demethylation activity was observed; 🟡: Indicates that low level demethylation activity was observed (<10% conversion after 1 h); 🔴: Indicates no activity under the stated conditions (1 μM KDM, 10 μM peptide); 🟡*: *Indicates demethylation activity was only observed with 5 μM KDM; details: peptide as substrate; MALDI-TOF MS; 1 μM KDM (* = only with 5 μM KDM), 10 μM peptide, 50 mM HEPES pH 7.5, Fe(II) 10 μM, ascorbate 100 μM, 2OG 200 μM, 1 h at 37 °C
Experimental: as §1, §4, §3

[9] = test system: KDM3A (KDM3A515–1317); assay: MALDI-TOF MS demethylation activity assay, KDM3A; type: biochemical, human; set-up: key: 🟢: Indicates that clear demethylation activity was observed; 🟡: Indicates that low level demethylation activity was observed (<10% conversion after 1 h); 🔴: Indicates no activity under the stated conditions (1 μM KDM, 10 μM peptide); 🟡*: *Indicates demethylation activity was only observed with 5 μM KDM; details: peptide as substrate, 1 μM KDM, 10 μM peptide, 50 mM HEPES pH 7.5, Fe(II) 10 μM, ascorbate 100 μM, 2OG 200 μM, 1 mM TCEP, 1 h at 37 °C
Experimental: as §1, §2

[10] = test system: KDM4A (KDM4A1–359); assay: MALDI-TOF MS demethylation activity assay, KDM4A; type: biochemical, human; set-up: key: 🟢: Indicates that clear demethylation activity was observed; 🟡: Indicates that low level demethylation activity was observed (<10% conversion after 1 h); 🔴: Indicates no activity under the stated conditions (1 μM KDM, 10 μM peptide); 🟡*: *Indicates demethylation activity was only observed with 5 μM KDM; details: peptide as substrate, 1 μM KDM, 10 μM peptide, 50 mM HEPES pH 7.5, Fe(II) 10 μM, ascorbate 100 μM, 2OG 200 μM, 1 h at 37 °C
Experimental: as §1, §4

[11] = target: T1, KDM4A(1-359), catalytic domain of human …; assay: crystal structure; co-crystals of KDM4A(1-359).Ni(II).H1.4(18-32)K26me3.NOG; sitting drops at 4 °C, 0.1 M MIB buffer pH 6.0, 25% w/v PEG 1500; 10 mg/mL KDM4A, 5 mM peptide, 5 mM NOG, 4 mM NiCl2; details: both partners purified

binding result [11] | Molecule | demethylation activity on methylated H1.4 peptide [1] | demethylation activity on methylated H1.4 peptide [2] | demethylation activity on methylated H1.4 peptide [3] | demethylation activity on methylated H1.4 peptide [4] | demethylation activity on methylated H1.4 peptide [5] | demethylation activity on methylated H1.4 peptide [6] | demethylation activity on methylated H1.4 peptide [7] | demethylation activity on methylated H1.4 peptide [8] | demethylation activity on methylated H1.4 peptide [9] | demethylation activity on methylated H1.4 peptide [10]
 | TPVKKKAR[Lys(Me)]SAGAAK [H1.4(18–32)K26me1, peptide of residues 18–32 of histone H1.4 with N ε-monomethyllysine at K26] | 🔴 | 🟡 (Indicates that low level demethylation activity was observed (<10% conversion after 1 h)) | 🔴 | 🔴 | 🔴 | 🔴 | 🔴 | 🟡* | 🔴 | 🔴
binds | B1 |  |  |  |  |  |  |  |  |  | 
